Laboratory results taken from patent US4289748A, “Ultrasensitive enzymatic radioimmunoassay method” (United States of America, priority 1979, dated 1981).

What was measured:
[1] = target: alkaline phosphatase-IgG (goat anti-rabbit) conjugate (Bos taurus, UniProt P19111); assay: Enzyme kinetics of alkaline phosphatase-IgG conjugate with varying AMP concentrations, double reciprocal plot; assay type: biochemical, calf; conditions: 10 mM diethanolamine buffer pH 9.8, 37° C., 30 minutes, conjugate 2×10^-8 mg/ml; double reciprocal plot (FIG. 4b)
alkaline phosphatase-IgG (goat anti-rabbit) conjugate, sequence (P19111 20-506 limits assumed): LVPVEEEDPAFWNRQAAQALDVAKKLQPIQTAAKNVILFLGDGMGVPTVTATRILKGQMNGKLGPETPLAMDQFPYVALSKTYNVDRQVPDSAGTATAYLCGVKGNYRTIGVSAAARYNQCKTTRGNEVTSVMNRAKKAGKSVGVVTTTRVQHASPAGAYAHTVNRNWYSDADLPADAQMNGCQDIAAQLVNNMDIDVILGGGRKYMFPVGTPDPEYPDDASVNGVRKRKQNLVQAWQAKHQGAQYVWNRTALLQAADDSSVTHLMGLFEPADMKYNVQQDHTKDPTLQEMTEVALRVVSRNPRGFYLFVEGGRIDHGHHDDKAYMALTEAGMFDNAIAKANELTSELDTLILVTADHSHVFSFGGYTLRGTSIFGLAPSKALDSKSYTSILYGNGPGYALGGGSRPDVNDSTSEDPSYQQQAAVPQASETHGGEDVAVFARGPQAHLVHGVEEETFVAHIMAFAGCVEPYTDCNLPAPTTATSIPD
Method: To determine the enzyme kinetics of alkaline phosphatase-IgG (goat anti-rabbit) conjugate, varying concentrations of adenosine-5'-monophosphate were added to a 10^6 dilution of the enzyme-IgG conjugate. […] Alkaline phosphatase conjugate (2×10^-8 milligrams per milliliter) was added to 10 mM diethanolamine buffer having a pH of 9.8, containing various concentrations of AMP. The reaction mixtures were incubated at 37° C. for 30 minutes. The tritium-labelled adenosine released was determined by column chromatography utilizing DEAE Sephadex by applying an 0.05 milliliter aliquot of the reaction mixture to a column packed with 1.5 milliliters DEAE Sephadex A-25 followed by elutation with a total of 4.5 milliliters of 0.01 M diethanolamine buffer with a pH of 9.8, containing 0.1 mM unlabelled adenosine in two fractions. 20 ml of liquid scintillator, Aquasol®, was added to each fraction and the tritium-labelled adenosine was measured in a liquid scintillation counter. The Km was calculated to be approximately 4 mM by a double reciprocal plot of the Michalis-Menton equation which is shown in FIG. 4b. […] The counting of the actual scintillation counter was adjusted in accordance with standard techniques to yield DPM, disintegrations per minute. Varying concentrations of diethanolomine buffer and MgCl2 were tested. […]

[2] = target: alkaline phosphatase-IgG conjugate (Bos taurus, UniProt P19111); assay: Effect of reaction products on the alkaline phosphatase-IgG conjugate assay (tritium-AMP hydrolysis); assay type: biochemical, calf; conditions: 100 picamole tritium-AMP, 10 mM buffer pH 9.0, 37° C.
alkaline phosphatase-IgG conjugate, sequence (P19111 20-506 limits assumed): as above
Method: Triplicates of the assay mixture containing 100 picamole of tritium-AMP and 10^-8 milligrams of enzyme conjugate in 0.1 milliliter of 10 mM buffer with a pH of 9.0 were incubated at 37° C. from 0 to 48 hours. Aliquots of 50 microliters of the reaction mixtures were withdrawn for determination of enzyme activity at 0.5, 1.5, 4.5, 24 and 48 hours. The enzyme activity was nearly linear for 90 minutes with approximately 2% of the tritium-AMP hydrolyzed to tritium-adenosine and phosphate. At 24 and 48 hours, the enzyme reaction became slower. Since the tritium-AMP radioindicator was still in excess, the reduction of enzyme activity could be secondary to enzyme degradation and/or product inhibition. To determine the effects of reaction products on the assay, either phosphate (2 or 20 picamoles) or adenosine (20 picamoles) was added to the assay mixtures. 2 and 20 picamole phosphate inhibited alkaline phosphatase activity by 8% and 90% respectively. […] The variation in the triplicate samples was small. For reaction times of less than 5 hours, the variation in either duplicate or triplicate samples was less than 10% of the mean value.

## Nc1ncnc2c1ncn2[C@@H]1O[C@H](COP(=O)(O)O)[C@@H](O)[C@H]1O [adenosine-5'-monophosphate]
[1]
  Km: ~4 mM

## Nc1ncnc2c1ncn2[C@@H]1O[C@H](CO)[C@@H](O)[C@H]1O [adenosine]
[2]; 20 picamole adenosine added to 0.1 ml assay mixture
  effect on the activity of the phosphatase: no detectable effect

## phosphate
[2]; 2 picamole phosphate added to 0.1 ml assay mixture
  inhibition of alkaline phosphatase activity: 8%
[2]; 20 picamole phosphate added to 0.1 ml assay mixture
  inhibition of alkaline phosphatase activity: 90%
